Here are results for 4 compounds from patent publication US9018244B2, “Benzopyran compounds, compositions and uses thereof” (Olema Pharmaceuticals, Inc., priority 2011, dated 2015).

For data set [1] the following is noted: daily oral dose of 40 mg in women; cited from earlier work.
Data set [2] has as its target T1, estrogen receptor alpha (ERα) (Homo sapiens, UniProt P03372).
T1 construct: endogenous in cells
T1 sequence (P03372 1-595): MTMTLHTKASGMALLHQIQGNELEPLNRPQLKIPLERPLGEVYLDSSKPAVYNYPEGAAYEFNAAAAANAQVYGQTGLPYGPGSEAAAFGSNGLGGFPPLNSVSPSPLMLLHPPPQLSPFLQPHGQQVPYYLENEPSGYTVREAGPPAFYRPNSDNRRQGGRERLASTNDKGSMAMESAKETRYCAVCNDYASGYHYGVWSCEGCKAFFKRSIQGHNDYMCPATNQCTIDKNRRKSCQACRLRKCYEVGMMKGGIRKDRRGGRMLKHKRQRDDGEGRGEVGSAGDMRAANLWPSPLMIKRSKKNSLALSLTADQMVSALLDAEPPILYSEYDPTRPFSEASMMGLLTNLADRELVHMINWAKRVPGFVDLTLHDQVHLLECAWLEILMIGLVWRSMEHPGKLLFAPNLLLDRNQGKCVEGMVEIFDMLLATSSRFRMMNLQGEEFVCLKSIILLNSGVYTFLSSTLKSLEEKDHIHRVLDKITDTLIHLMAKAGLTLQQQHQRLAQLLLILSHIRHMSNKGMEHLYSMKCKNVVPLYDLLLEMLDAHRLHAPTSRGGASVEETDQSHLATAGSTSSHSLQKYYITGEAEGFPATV
In words: ERα expression by immunoblot after anti-estrogen treatment. It is filed as cell-based. The note with it: 100 nM anti-estrogen, 22-24 hours, serum-free medium; MCF-7 breast cells and ECC-1 endometrial cells. The protocol: FIG. 12. […] A) ERα levels in breast cells after treatment with OP-1074 compared to treatment with model anti-estrogens. MCF-7 cells were treated with 100 nM anti-estrogen for 24 hours in serum-free medium and protein extracts immunoblotted with an antibody to ERα (D12, Santa Cruz Biotechnology, Santa Cruz, Calif.). Image is from a single representative experiment and number on top denotes the mean percent ERα expression relative to vehicle from quadruplicate treatments. B) OP-1038 induces degradation of ERα in both MCF-7 breast cells and ECC-1 endometrial cells.
ERα expression was detected in MCF-7 cell lysates treated with 100 nM anti-estrogens in serum-free medium for 22-24 hours and immunoblotted with an antibody specific to ERα as described in the legend to, and depicted in FIG. 12.

Data set [3] concerns E2-stimulated estrogen response element (ERE)-regulated reporter gene activity. In words: ERE-tk109-Luc reporter gene assay in MCF-7 cells. The data set is classed as cell-based, human. The note with it: 100 pM E2, 18-22 hours. As for the experimental part: (§1) FIG. 10. […] A) OP-1074 had similar potency to model anti-estrogens in the ERE reporter gene assay. MCF-7 cells were transiently transfected with ERE-tk109-Luc and treated with anti-estrogens in hormone-depleted medium in the presence of 100 pM E2 for 22 hours. Results were from a single representative experiment and reported as the mean percent induction relative to E2 from triplicate treatments, with error bars representing SEM. […] Results were from a single representative experiment and reported as the mean percent induction relative to E2 from triplicate treatments, with error bars representing SEM. IC50's were calculated using the least squares fit method.
Compounds of invention are tested for their inhibitory activity of estrogen according to the assay methods described in Hodges-Gallagher, L., Valentine, C. V., El Bader, S. and Kushner, P. J. (2007) “Histone Deacetylase Inhibitors Enhance the Efficacy of Hormonal Therapy Agents on Breast Cancer Cells and Blocks Anti-estrogen-Driven Uterine Cell Proliferation” Breast Cancer Res Treat, November; 105(3):297-309. Specifically, an estrogen-responsive reporter gene (ERE-tk109-Luc) was transiently transfected into MCF-7 cells and treated with anti-estrogens in triplicate in the presence of 100 pM 17β-estradiol (E2) for 18-22 hours. Luciferase activity was normalized to activity of E2 alone and IC50's were calculated using the least squares fit method. This method is also described in legend for FIG. 10.

Data set [4] deals with human MCF-7 breast cancer cells. In words: E2-stimulated proliferation of MCF-7 breast cancer cells. It is filed as cell-based. The note with it: MCF-7 cells, 100 pM E2, 6-8 days. As for the experimental part:
as §1, with “11.” for “10.”, “inhibiting E2-stimulated proliferation of breast cells in vitro.” for “the ERE reporter gene assay.”, “were” for “were transiently transfected with ERE-tk109-Luc and”, “medium for 6-8 days” for “medium”, “E2. Proliferation was measured using Cyquant fluorescent DNA-binding dye (Invitrogen, Grand Island, N.Y.).” for “E2 for 22 hours.”
Proliferation in MCF-7 was measured using a fluorescent DNA binding dye 6-8 days after treatment in triplicate with anti-estrogens in the presence of 100 pM E2 and as described in the legend to, and depicted in FIG. 11.

The subject of data set [5] is E2-stimulated AP activity in ECC-1 cells. The data set can be described thus: Inhibition of E2-stimulated AP activity in ECC-1 cells (antagonist mode). The data set is classed as cell-based, human. The note with it: in the presence of 500 pM E2. The source says: FIG. 2. Alkaline phosphatase (AP) activity in ECC-1 cells correlates with the uterine wet weight of ovariectomized rats, as reported previously in Scafonas, et al. (*; Scafonas et al. “Agonist-like SERM effects on ER alpha-mediated repression of MMPI promoter activity predict in vivo effects on bone and uterus. J Steroid Biochem Mol. Biol. 2008 110(3-5):197-206) and Labrie, et al. (†; Labrie et al. “The combination of a novel selective estrogen receptor modulator with an estrogen protects the mammary gland and uterus in a rodent model: the future of postmenopausal women's health?” Endocrinology. 2003 144(11):4700-6). ECC-1 cells were treated with 500 pM 17β-estradiol (E2) or 1-5 nM anti-estrogens in hormone-depleted medium for 3 days. Note that the racemic mixture of acolbifene, EM-343, was used in the in vitro AP assay. AP activity was measured by incubating a chromogenic AP substrate, p-nitrophenyl phosphate, at 40° C. for 40 minutes followed by measuring the absorbance at 405 nm. Results were from a single representative experiment and reported as the mean percent induction relative to E2 from triplicate treatments, with error bars representing SEM.
FIG. 6. […] A) Comparison of inhibition of E2-stimulated AP activity of various benzopyran compounds (right) compared to published reference compounds (left). ECC-1 cells were treated with 100 nM anti-estrogens in the presence of 500 pM E2 and AP activity was measured as described in FIG. 2. Note that OP-1038 was statistically different from EM-343 and Gauthier compound Ia (p<0.0001 (exact p values stated in graph), calculated using Student's t-test). Results were from a single representative experiment and reported as the mean percent induction relative to E2 from triplicate treatments, with error bars representing SEM. […] IC50's were calculated using the least squares fit method. *Aragon Compound 28 was statistically different from equivalent dose of OP-1038 (p≦0.01, calculated using Student's t-test). […]
Method for performing the alkaline phosphatase (AP) assay. […] Absorbance was read at 405 nm using a plate spectophotometer. […]

Data set [6] deals with rodent uterus, human uterine cells. The note with it: cited from earlier work.

In the case of `CC1=C(c2ccc(OC(=O)C(C)(C)C)cc2)[C@H](c2ccc(OCCN3CCCCC3)cc2)Oc2cc(OC(=O)C(C)(C)C)ccc21` [EM800], the “Mean drug exposure of circulating acolbifene” value in data set [1] was 15 ng/mL.

Regarding `CC1=C(c2ccc(O)cc2)[C@H](c2ccc(OCCN3CCCCC3)cc2)Oc2cc(O)ccc21` [EM-652, (S)-3-(4-hydroxyphenyl)-4-methyl-2-(4-(2-(piperidin-1-yl)ethoxy)phenyl)-2H-chromen-7-ol], the “Mean drug exposure of circulating acolbifene” value in data set [1] is 8.3 ng/mL.

With `CC1=C(c2ccc(O)cc2)[C@@H](c2ccc(OCCN3CC[C@@H](C)C3)cc2)Oc2cc(O)ccc21` [OP-1075, (2R)-3-(4-hydroxyphenyl)-4-methyl-2-(4-{2-[(3R)-3-methylpyrrolidin-1-yl]ethoxy}phenyl)-2H-chromen-7-ol], the “Degradation of ERα” value in data set [2] is listed as “degrade the receptor”. Further, the “Antagonism of E2-stimulated ERE-regulated reporter gene activity” value in data set [3] was “reduced activity”. Besides, the “Antagonism of E2-stimulated proliferation” value in data set [4] is recorded as “reduced activity”. Also, in data set [5], the “Inhibition of E2-stimulated AP activity” value is “reduced activity”.

Consider `CC12CCC3c4ccc(O)cc4CC(CCCCCCCCC[S+]([O-])CCCC(F)(F)C(F)(F)F)C3C1CCC2O` (stereo not shown) [fulvestrant], for which the “Residual estrogen-like action relative to estradiol” value in data set [6] is recorded as “almost unmeasurable”.
